Legend:
[1] = system: PSN-1 pancreatic carcinoma cells; experiment: siRNA knockdown followed by cell viability assay, PSN-1; type: cell-based, human; details: siRNA 25 nM 48 h, then Apo2L/TRAIL 24 h
Procedure: (§1) FIG. 11 illustrates modulation of particular O-glycosylation enzymes alters sensitivity to Apo2L/TRAIL. (A) Colo205 cells were preincubated with the pan O-glycosylation enzyme inhibitor benzyl-GalNAc (bGalNAc), treated with Apo2L/TRAIL for 24 h, and cell viability was determined (DMSO=vehicle control). (B) PSN-1 (pancreatic carcinoma) and Hs294T (melanoma) cells were transfected with caspase-8 or ppGalNAcT-14 siRNAs for 48 h, incubated with Apo2L/TRAIL for another 24 h and cell viability was determined. siRNA duplexes against a non-targeting sequence (Dharmacon) were used as a control (NTC). (C) DLD-1 colorectal carcinoma cells were transfected with ppGalNAcT-3 or Fut-6 by siRNAs and tested as in B. (D) HEK293 cells were co-transfected with plasmids encoding the indicated genes in combination with ppGalNAcT-14 or vector control. Apoptosis was measured at 24 h by Annexin V staining (left panel). H1569 melanoma cells were transduced with retrovirus directing ppGalNAcT-14 expression or control retrovirus; resulting cell line pools were treated with Apo2L/TRAIL for 24 h and cell viability was determined (right panel). Western blot analysis using anti-FLAG antibodies was used to verify expression of epitope-tagged ppGalNAcT-14.
(§2) FIG. 14 illustrates (A) Reduction in mRNA expression of ppGalNAcT-14 or ppGalNAcT-3 in PSN-1 or DLD-1 cells after 48 h siRNA knockdown by Taqman analysis. […]

Hs294T melanoma cells = experiment: siRNA knockdown followed by cell viability assay, Hs294T; type: cell-based, human; details: siRNA 25 nM 48 h, then Apo2L/TRAIL 24 h
Procedure: as §1, §2

PSN-1 cells = experiment: Immunoblot analysis of the Apo2L/TRAIL-induced caspase cascade, PSN-1; type: cell-based, human; details: siRNA 48 h, Apo2L/TRAIL 4 or 8 h
Procedure: (§3) FIG. 12 illustrates (A) Analysis of the caspase cascade induced by Apo2L/TRAIL. PSN-1 and DLD-1 cells were transfected with siRNAs against ppGalNAcT-14 or Fut-6, respectively, for 48 h. The cells were treated with Apo2L/TRAIL for 4 or 8 h, and cell lysates were analyzed by immunoblot with antibodies specific for caspase-8, Bid, caspase-9, caspase-3, or actin as a loading control. (B) PSN-1 cells were transfected with ppGalNAcT-14 siRNA as in A, treated with Apo2L/TRAIL for 4 h, and caspase-3/7 enzymatic activity in cell lysates was determined. (C) Analysis of the Apo2L/TRAIL DISC. PSN-1 cells were transfected with ppGalNAcT-14 siRNA as in A. FLAG-Apo2L/TRAIL ([…]) was added for 0-60 min, the cells were lysed, and subjected to an immunoprecipitation with an anti-FLAG antibody. DISC-associated FADD, caspase-8, DR4, and were detected by immunoblot. (D) PSN-1 cells were transfected, treated, and subjected to DISC immunoprecipitation as in C, and DISC-associated caspase-8 enzymatic activity was measured as previously described (Sharp et al., J. Biol. Chem., 280:19401 (2005).
(§4) siRNAs were purchased as double stranded RNA oligonucleotides and transfected into the respective cell lines at a final concentration of 25 nM for each siRNA. siRNA duplexes against a non-targeting sequence (Dharmacon) was used as a control. […]

DLD-1 cells = experiment: Immunoblot analysis of the Apo2L/TRAIL-induced caspase cascade, DLD-1; type: cell-based, human; details: siRNA 48 h, Apo2L/TRAIL 4 or 8 h
Procedure: as §3, §4

Colo205 cells = experiment: Inhibition of O-glycosylation with benzyl-GalNAc, then Apo2L/TRAIL viability assay; type: cell-based, human; details: preincubation with Benzyl-a-GalNAc 2 mM or 4 mM, then Apo2L/TRAIL 24 h
Procedure: as §1
Colo205 cells were grown in the presence of Benzyl-a-GalNAc (2 mM or 4 mM) for 72 hours. […]

[2] = system: panel of human cancer cell lines (23 pancreatic adenocarcinomas, 18 malignant melanomas, 36 colorectal adenocarcinomas); experiment: Cell viability assay to determine IC50 for Apo2L/TRAIL in a cancer cell line panel; type: cell-based
Procedure: FIG. 10A-D illustrates differential expression of specific O-glycosylation enzymes in Apo2L/TRAIL-sensitive and -resistant cancer cell lines: (A) Cell viability was measured after incubation with varying doses of Apo2L/TRAIL. IC50 for each cell line was computed as the concentration of Apo2L/TRAIL that gives 50% loss of viability. Each cell viability experiment was repeated at least three times in presence of low (0.5%) and high (10%) fetal bovine serum. Black, grey, or open symbols depict cell lines that are highly sensitive, moderately sensitive, or resistant to Apo2L/TRAIL, respectively. (B) ppGalNAcT-14 mRNA expression levels (probe set 219271 at) in pancreatic and malignant melanoma cell lines. Cell lines are arranged by tissue type and sensitivity to Apo2L/TRAIL. Black, grey, or open bars depict cell lines as in A. (C) mRNA expression levels of Fut-6 (top panel, probe set 211885_x_at) and ppGalNAcT-3 (bottom panel, probe set 203397_s_at) in colorectal cancer cell lines. […] Athymic nude mice carrying GalNAcT-3/Fut-6-positive (left panel) or GalNAcT-3/Fut-6-negative (right panel) tumors received vehicle or Apo2L/TRAIL (60 mg/kg/day i.p. on days 0-4) and tumor volume was monitored (mean ±SE, N=10 mice/group). […]

Colo205 tumor xenografts = experiment: Tumor xenograft study, Colo205; type: in vivo, mice; details: Fut-6-positive Colo205; 60 mg/kg/day i.p. on days 0-4
Procedure: (§5) FIG. 10A-D illustrates differential expression of specific O-glycosylation enzymes in Apo2L/TRAIL-sensitive and -resistant cancer cell lines: (A) Cell viability was measured after incubation with varying doses of Apo2L/TRAIL. IC50 for each cell line was computed as the concentration of Apo2L/TRAIL that gives 50% loss of viability. Each cell viability experiment was repeated at least three times in presence of low (0.5%) and high (10%) fetal bovine serum. Black, grey, or open symbols depict cell lines that are highly sensitive, moderately sensitive, or resistant to Apo2L/TRAIL, respectively. (B) ppGalNAcT-14 mRNA expression levels (probe set 219271 at) in pancreatic and malignant melanoma cell lines. Cell lines are arranged by tissue type and sensitivity to Apo2L/TRAIL. […] Athymic nude mice carrying GalNAcT-3/Fut-6-positive (left panel) or GalNAcT-3/Fut-6-negative (right panel) tumors received vehicle or Apo2L/TRAIL (60 mg/kg/day i.p. on days 0-4) and tumor volume was monitored (mean ±SE, N=10 mice/group).
(§6) Monosaccharide composition of CHO-cell-derived DR5 was obtained after hydrolysis with 4 N TFA. […] Tumor measurements were collected by a digital caliper and tumor volumes calculated using the formula […] (A=length) (B=width)^2. […]

DLD-1 tumor xenografts = experiment: Tumor xenograft study, DLD-1; type: in vivo, mice; details: Fut-6-positive DLD-1; 60 mg/kg/day i.p. on days 0-4
Procedure: as §5, §6

Colo320 tumor xenografts = experiment: Tumor xenograft study, Colo320; type: in vivo, mice; details: Fut-6-negative Colo320; 60 mg/kg/day i.p. on days 0-4
Procedure: as §5, §6

RKO tumor xenografts = experiment: Tumor xenograft study, RKO; type: in vivo, mice; details: Fut-6-negative RKO; 60 mg/kg/day i.p. on days 0-4
Procedure: as §5, §6

Compound | effect on sensitivity to Apo2L/TRAIL (cell viability) [1] | effect on sensitivity to Apo2L/TRAIL (cell viability) (Hs294T melanoma cells) | Apo2L/TRAIL-induced caspase processing (caspase-8, Bid, caspase-9, caspase-3) (PSN-1 cells) | Apo2L/TRAIL-induced caspase processing (caspase-8, Bid, caspase-9, caspase-3) (DLD-1 cells) | effect on sensitivity to Apo2L/TRAIL (cell viability) (Colo205 cells) | cell lines classified as highly or moderately sensitive to Apo2L/TRAIL ([2]; 29/77 cell lines) [%] | Apo2L/TRAIL concentration required for achieving 50% cell death, mean ([2]; mean over the 29 highly or moderately sensitive cell lines) [ng/mL] | effect on growth of established tumor xenografts (Colo205 tumor xenografts) | effect on growth of established tumor xenografts (DLD-1 tumor xenografts) | effect on growth of established tumor xenografts (Colo320 tumor xenografts) | effect on growth of established tumor xenografts (RKO tumor xenografts)
5′ GGACAAAGTTTACCAAATG-dTdT 3′ [caspase-8 siRNA, reference compound] | essentially complete protection | essentially complete protection | prevented these events | prevented these events | – | – | – | – | – | – | –
CC(=O)N[C@H]1[C@@H](OCc2ccccc2)O[C@H](CO)[C@H](O)[C@@H]1O [benzyl-GalNAc, Benzyl-a-GalNAc] | – | – | – | – | markedly reduced sensitivity to Apo2L/TRAIL | – | – | – | – | – | –
Apo2L/TRAIL: nontagged soluble recombinant human Apo2L/TRAIL, prepared as described in Lawrence et al. | – | – | essentially complete processing of caspase-8 | essentially complete processing of caspase-8 | – | 38 | 250 | tumor regression followed by a greatly delayed tumor progression | tumor regression followed by a greatly delayed tumor progression | did not respond | did not respond
